The target of this assay is T1, human CC-chemokine receptor 4 (CCR4); CHO-CCR4 membranes (Homo sapiens, UniProt P51679).
T1 construct: membranes
T1 sequence (P51679 1-360): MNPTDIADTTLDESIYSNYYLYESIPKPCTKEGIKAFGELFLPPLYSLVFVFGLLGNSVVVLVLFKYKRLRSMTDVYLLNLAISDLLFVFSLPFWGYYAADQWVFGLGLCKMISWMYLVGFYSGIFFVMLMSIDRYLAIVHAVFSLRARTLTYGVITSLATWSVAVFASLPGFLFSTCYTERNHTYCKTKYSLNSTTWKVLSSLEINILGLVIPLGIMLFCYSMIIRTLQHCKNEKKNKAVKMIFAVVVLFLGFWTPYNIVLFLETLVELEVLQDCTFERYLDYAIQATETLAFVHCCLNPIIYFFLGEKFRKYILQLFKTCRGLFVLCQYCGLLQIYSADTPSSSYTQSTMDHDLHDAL
Nature of the assay: […]CCL17 displacement, scintillation proximity assay, CHO-CCR4 membranes. The note with it: read-out: [^125I]CCL17 / pKi (converted). It is filed as binding.
On to `COc1cccc2c1c(NS(=O)(=O)c1ccc(Cl)s1)nn2Cc1cccc(CNC(=O)OC(C)(C)C)c1` [compound 2], for which the Ki was 18.2 nM.
As to `O=C([C@H]1CCCCN1)N1CCN(c2nccc(NCc3ccc(Cl)cc3Cl)n2)CC1` [compound 4], the Ki was 2.75 nM.
For the compound `c1ccc2c(Nc3nc(CN(CC4CCCCC4)CC4CCCCC4)cs3)cccc2c1` [compound 1], the Ki was 457 nM.
`COc1cccc2c1c(NS(=O)(=O)c1ccc(Cl)s1)nn2Cc1cccc(CNC(=O)C(C)(C)O)c1` [compound 3]: the Ki is 6.17 nM.
The same measure for `COc1cc2nc(N3CCC(N(C)C(=O)[C@H]4CCCN4)CC3)nc(Nc3ccc(Cl)cc3F)c2cc1OC` [compound 6]: 2 nM; for `COc1nc(Br)cnc1NS(=O)(=O)c1ccc(Cl)s1` [compound 7]: 29.5 nM.

For the origin of these results see paper PMC4186434, “Antagonism of human CC-chemokine receptor 4 can be achieved through three distinct binding sites on the receptor” (Pharmacology Research & Perspectives, 2013).
